Test results as given in patent publication US20240219373A1, “METHOD FOR EVALUATING EFFICACY OF ANTICANCER DRUG OR SCREENING ANTICANCER DRUG” (ORGANOIDSCIENCES LTD., priority 2021, published 2024).

Assays:
Format in all cases: cell-based, human
lung cancer organoids [1] = assay: Death rate of lung cancer organoids co-cultured with CD8+ T cells and Tregs; conditions: 72 h
Protocol: (§1) Herein, the number of organoids or cells was set to 1 for 5.0×10^3.
(§2) Cancer organoids were prepared using stem cells isolated from tumor tissue of colorectal cancer or lung cancer patients. The isolated stem cells were mixed with ECM (extracellular matrix) to grow into a 3D structure to make a dome, and then organoids were formed and used through culture. CD8+ T cells and Tregs were obtained from blood obtained from colorectal cancer or lung cancer patients. Immune cells present in the blood were differentiated, and CD8+ and Treg cells were isolated from the differentiated immune cells using a MACS (magnetic activated cell sorting) method.
(§3) Specifically, for the co-cultures of cancer organoids, CD8+ T cells and Tregs according to the mixing ratio in Table 6 above, those not treated with the drug were set as the control group (hereinafter referred to as ‘drug-untreated group’), and those treated with an atezolizumab targeting CD8+ T cells or an anti-TIGIT antibody targeting CD8+ T cells or Tregs as an exemplary drug were set as the experimental group (hereinafter referred to as ‘drug-treated group’). After co-culturing them for 72 hours, the growth rate was measured after 72 hours of drug treatment (72 h), and the death rate was analyzed by the following method through the measured growth rate.

lung cancer organoids [2] = assay: Growth and death rate of lung cancer organoids co-cultured with TILs
Protocol: (§4) Specifically, the inventors set a mixing ratio satisfying co-culture conditions under which (1) cancer organoids grow properly and (2) drug efficacy is well observed. Cancer organoids were prepared using cancer cells isolated from tumor tissues of lung cancer or colorectal cancer patients, and TILs obtained by co-culture with cancer organoids for 14 days according to Example 1.1 were used.
(§5) Herein, the number of organoids or TILs was set to 1 for 5.0×10^3.
(§6) In addition, for the co-cultures of cancer organoids and TILs according to the ratio above, those not treated with the drug were set as the control group (hereinafter referred to as ‘drug-untreated group’), and those treated with atezolizumab, which is currently marketed and used for a cancer treatment, as an exemplary drug were set as the experimental group (hereinafter referred to as ‘drug-treated group’). After co-culturing for 72 hours, the growth rate was measured immediately after the start of the co-culture (0 h), after 24 hours (24 h), after 48 hours (48 h) and after 72 hours (72 h), respectively, and the death rate was analyzed by the following method through the measured growth rate: Cancer organoid death rate (%)=[1−(growth rate of cancer organoids in the drug-treated group*)/(growth rate of cancer organoids in the drug-untreated group**)]×100

[3] = test system: cancer organoids derived from colorectal cancer patients; assay: Overall efficacy (organoid area change, HCS) in co-culture of cancer organoids, CD8+ T cells and M1; conditions: Groups 1, 3, 6 and 8: cancer organoids:M1 fixed 1:1, CD8+ T cell ratio changes; 10 nM; 72 hours
Excerpt: In order to confirm whether the screening system composed of cancer organoids, CD8+ T cells and M1 as confirmed in Example 1.1 can be used to evaluate the efficacy of a drug, the death rate of cancer organoids by phagocytosis was observed after treating the system with an anti-PD-L1 antibody atezolizumab previously used as an immuno-anticancer drug, anti-CD47 antibody and a combination thereof.
Atezolizumab activates CD8+ T cells by binding to PD-L1 on cancer cells and blocking the PD-1/PD-L1 mechanism, and anti-CD47 antibody activates macrophages by binding to […] and blocking the SIRP-a/CD47 mechanism. […]
Then, they were co-cultured, and treated with 10 nM of Atezolizumab (Selleck, #A2004) which is anti-PD-L1 antibody and/or 10 nM of anti-CD47 antibody. After that, the death rate of cancer organoids or M1 was analyzed at each ratio. Herein, the ratio of the CD8+ T cells and M1 was tested in a narrower range than the ratio applied in Example 1.1, and the changes in organoid area for 72 hours after drug treatment was analyzed by HCS (High-Content Screening). After 72 hours from drug treatment, the overall efficacy was evaluated by calculating the change in the organoid area of the drug-treated group compared to the organoid area of the non-treated group.

[4] = test system: colorectal cancer organoids; assay: Death rate of colorectal cancer organoids co-cultured with CD8+ T cells and Tregs; conditions: 72 h
Protocol: as §1, §2, §3

[5] = test system: colorectal cancer organoids; assay: Growth and death rate of colorectal cancer organoids co-cultured with CD8+ T cells and DCs
Protocol: (§7) Specifically, in order to establish a co-culture system in which cancer organoids, cytotoxic T cells (hereinafter referred to as ‘CD8+ T cells’) and dendritic cells (hereinafter referred to as ‘DC’) coexist, the inventors set a mixing ratio satisfying co-culture conditions under which (1) cancer organoids grow properly and (2) drug efficacy is well observed. […] Herein, the number of organoids or cells was set to 1 for 5.0×10^3.
(§8) Cancer organoids were prepared to have a 3D structure by isolating colorectal cancer or lung cancer tissues obtained from patients into single cells and culturing them together with ECM (extracellular matrix). The formed cancer organoids were confirmed to be tumors through pathological analysis, and used after being isolated into single cells using Tryp-LE.
(§9) CD8+ T cells isolated from PBMCs were used. PBMCs were isolated from blood obtained from donors by using Ficoll, and CD8+ T cells were isolated through MACS after a T cell activation process.
(§10) DCs differentiated from iPSCs were used, and DCs were differentiated from the H9 cell line using a general method known in the art.
(§11) Specifically, for the co-cultures of cancer organoids, CD8+ T cells and DCs according to the mixing ratio in Table 7 above, those not treated with the drug were set as the control group (hereinafter referred to as ‘drug-untreated group’), and those treated with an atezolizumab targeting CD8+ T cells as an exemplary drug were set as the experimental group (hereinafter referred to as ‘drug-treated group’). Drugs were treated immediately after the start of co-culture, and the growth rate of cancer organoids was measured immediately after the start of the co-culture (0 h), after 24 hours (24 h), after 48 hours (48 h) and after 72 hours (72 h), respectively. The death rate was analyzed by the following method through the measured growth rate.

lung cancer organoids [6] = assay: Growth and death rate of lung cancer organoids co-cultured with CD8+ T cells and DCs
Protocol: as §7, §8, §9, §10, §11

[7] = test system: colorectal cancer organoids; assay: Growth and death rate of colorectal cancer organoids co-cultured with TILs
Protocol: as §4, §5, §6

[8] = lung cancer organoids:TILs 1:0.5
[9] = lung cancer organoids:TILs 1:1.5
[10] = colorectal cancer organoids:TILs 1:0.5
[11] = colorectal cancer organoids:TILs 1:1.5

For atezolizumab, the “death rate of cancer organoids, maximum level” value (“death rate … maximum level” for short) (lung cancer organoids [1]; lung cancer organoids:CD8+ T cells 1:1, Treg 0.5 to 3) was “about 10%”, the “death rate of cancer organoids” value (lung cancer organoids [1]; lung cancer organoids:CD8+ T cells 1:3, with Tregs) was “about 25%” and the “death rate of cancer organoids” value (lung cancer organoids [1]; lung cancer organoids:CD8+ T cells 1:3, without Tregs) was “about 27%”. The “death rate of cancer organoids” value (lung cancer organoids [1]; lung cancer organoids:Tregs 1:3, without CD8+ T cells) was “about 1%”, the “death rate of lung cancer organoids” value (lung cancer organoids [2]; [8]) was “about 5%” and the “response of lung cancer organoids (growth rate and death rate vs control group)” value (lung cancer organoids [2]; [8]) was “did not respond to the drug”. For the same substance, the “anticancer effects on lung cancer organoids (growth, death)” value (lung cancer organoids [2]; [9]) was “inhibiting the growth and increasing death”, the “death rate of lung cancer organoids” value (lung cancer organoids [2]; [9]) was “about 20%” and the “death rate of lung cancer organoids” value (lung cancer organoids [2]; lung cancer organoids:TILs 1:3) was “about 5%”. The “growth inhibition and death of cancer organoids (overall efficacy)” value [3] was “high”, the “death rate … maximum level” value ([4]; colorectal cancer organoids:CD8+ T cells 1:1, Treg 0.5 to 3) was “about 10%” and the “death rate of cancer organoids” value ([4]; colorectal cancer organoids:CD8+ T cells 1:3, with Tregs) was “about 25%”. The “death rate of cancer organoids” value ([4]; colorectal cancer organoids:CD8+ T cells 1:3, without Tregs) was “about 26%”, the “death rate of cancer organoids” value ([4]; colorectal cancer organoids:Tregs 1:3, without CD8+ T cells) was “about 2%” and the “death rate … maximum level” value ([5]; colorectal cancer organoids:CD8+ T cells 1:0.5, DC 0.5 to 5, 72 h) was “about 5%”. The “maximum death rate of cancer organoids” value ([5]; colorectal cancer organoids:CD8+ T cells 1:1, DC 0.5 to 5, 72 h) was “about 10%”, the “growth of cancer organoids” value ([5]; colorectal cancer organoids:CD8+ T cells:DCs 1:0.5:0.5 to 5) was “did not significantly inhibit the growth” and the “growth of cancer organoids” value ([5]; colorectal cancer organoids:CD8+ T cells:DCs 1:1 to 3:0.5 to 5) was “inhibited the growth”. The “death rate … maximum level” value (lung cancer organoids [6]; lung cancer organoids:CD8+ T cells 1:0.5, DC 0.5 to 5, 72 h) was “about 5%”, the “maximum death rate of cancer organoids” value (lung cancer organoids [6]; lung cancer organoids:CD8+ T cells 1:1, DC 0.5 to 5, 72 h) was “about 10%” and the “growth of cancer organoids” value (lung cancer organoids [6]; lung cancer organoids:CD8+ T cells:DCs 1:0.5:0.5 to 5 or 1:1:0.5 to 1) was “did not significantly inhibit the growth”. The “growth of cancer organoids” value (lung cancer organoids [6]; lung cancer organoids:CD8+ T cells:DCs 1:1:5 or 1:3:0.5 to 5) was “inhibited the growth”, the “death rate of colorectal cancer organoids” value [7, 10] was “about 5%” and the “response of colorectal cancer organoids (growth rate and death rate vs control group)” value [7, 10] was “did not respond to the drug”. For the same substance, the “anticancer effects on colorectal cancer organoids (growth, death)” value [7, 11] was “inhibiting the growth and increasing death”, the “death rate of colorectal cancer organoids” value [7, 11] was “about 10%” and the “death rate of colorectal cancer organoids” value ([7]; colorectal cancer organoids:TILs 1:3) was “about 5%”.
